Reference: patent US7390630B1, “Method of identifying a compound that selectively inhibits cytokine-stimulated T cell induced production of TNF-alpha by monocytes” (Mathilda and Terence Kennedy Institute of Rheumatology Trust, priority 1999, dated 2008)
“And” between values parts separate entries of the source, which are not always exact repeats. Identical values can stand only once.

Tests used:
Type in all cases: cell-based, Human
[1] = tested on: monocyte TNFα production induced by anti-CD3 antibody stimulated T-cells (Ttcr cells); experiment: Ttcr cell-induced TNFα production by monocytes (co-culture, ELISA); details: for IC50: Homo sapiens, Monocyte, T cells:monocytes 5:1, 18 h co-culture, read-out: IC50, inhibition of monocyte TNFα production induced by Ttcr cells
Description: Human peripheral blood T cells and monocytes were isolated from single donor plateletpheresis residues (purchased from the North London Blood Transfusion service, Colindale, GB). Mononuclear cells were isolated by Ficoll/Hypaque centrifugation (specific density 1.077 g/ml, Nycomed Pharma AS, Oslo, Norway), prior to cell separation in a Beckman JE6 elutriator. Elutriation was performed in culture medium containing 1% heat-inactivated foetal calf serum (FCS) using methods known in the art (see Sebbag et al., 1997, Parry et al., 1997). T cell and monocyte purity were assessed by flow cytometry (see Sebbag et al., 1997).
Ttcr cells: Ttcr cells were prepared from elutriation enriched T cells by resuspending the cells at a density of 10^6 cells/ml in RPMI 1640 (containing 10% heat inactivated AB+ human serum (Biowhittaker, UK). Following resuspension, the cells were incubated (at 37° C. in a 5% CO2/95% humidified incubator) in 6-well culture plates with immobilised anti-CD3 monoclonal antibodies for 24 hours (OKT3, ATCC, Maryland, USA), the antibodies having previously been coated on to the 6-well culture plates at 10 μg/ml (overnight at 4° C.).
Following completion of the culture period, the Tck and Ttcr cells were harvested and washed three times in RPMI medium containing 1% heat-inactivated fetal calf serum (FCS), prior to fixation for 1 minute at 0° C. in PBS containing 0.05% glutaraldehyde, and neutralized with an equivalent volume of T lymphocyte neutralizing buffer containing 0.2 M glycine. […]
(§1) Reagents for the TNFα ELISA were provided by Dr. W. Buurman (Rijks Universiteit Limburg, Maastricht, Netherlands). […] The rabbit polyclonal antibody was detected using a peroxidase-conjugated goat anti-rabbit IgG (H+L) (Jackson Immunoresearch Laboratories Inc., Westgrove, PE, USA) followed by an appropriate substrate. […]
(§2) Monocytes were treated with M-CSF for 2 days as described above, infected with adenovirus containing either an insert encoding IκBα (AdvIκBα) or no insert (Adv0). The effect of IκBα over-expression on T cell-induced monocyte (ratio 5:1) TNFα production was then determined.

[2] = tested on: monocyte TNFα production induced by cytokine stimulated T cells (Tck cells); experiment: Tck cell-induced TNFα production by monocytes (co-culture, ELISA); details: T cells stimulated with IL-2, IL-6 and TNFα; results not shown
Description: Human peripheral blood T cells and monocytes were isolated from single donor plateletpheresis residues (purchased from the North London Blood Transfusion service, Colindale, GB). Mononuclear cells were isolated by Ficoll/Hypaque centrifugation (specific density 1.077 g/ml, Nycomed Pharma AS, Oslo, Norway), prior to cell separation in a Beckman JE6 elutriator. Elutriation was performed in culture medium containing 1% heat-inactivated foetal calf serum (FCS) using methods known in the art (see Sebbag et al., 1997, Parry et al., 1997). T cell and monocyte purity were assessed by flow cytometry (see Sebbag et al., 1997). […]
as §1, §2

[3] = tested on: monocyte TNFα production induced by RA CD3+ enriched cells; experiment: Monocyte TNFα production induced by fixed RA synovial CD3+ enriched T cells; details: for TNFα: LY294002 50 μM 30 min, Wortmannin 500 nM 30 min, AKTA 5 mM 30 min, Rapamycin 10 μM 60 min, untreated control 686 ± 59, mean ±SD; for TNFα / Percent change: RA T cells:monocytes 5:1, 18 h; for Percent change: change of TNFα versus untreated control, LY294002 50 μM, Wortmannin 500 nM, Rapamycin 10 μM
Description: (§3) Rheumatoid arthritis (RA) mononuclear cells were obtained from synovial tissue specimens provided by the Rheumatology Clinic, Charing Cross Hospital, London, UK. Tissue was teased into small pieces and digested in medium containing 0.15 mg/ml DNase type 1 (Sigma, UK) and 5 mg/ml collagenase (Roche, UK) for 1 to 2 hours at 37° C. After passing cells through nylon mesh to exclude cell debris, cells were washed and resuspended in RPMI medium (Biohittaker, Verviers, Belgium) (containing 10% heat-inactivated FCS) at a density of 1×10^6 cells/ml and used immediately.
CD3+ enriched cells were isolated from RA synovial mononuclear cells by direct, positive selection using Dynabeads (Dynal UK Ltd, Wirral, UK) coated with anti-CD3 monoclonal antibodies (anti-CD3 mAbs). Briefly, mononuclear cells (1×10^7) were cultured with 100 μl anti-CD3 mAb-coated Dynabeads for 20 minutes at 4° C. under constant rotation. Cells attached to beads were isolated using a magnetic particle concentrator (Dynal, Merseyside, UK) and cultured for 6 hours at 37° C. Detached cells were removed from magnetic beads and washed three times using the magnetic particle concentrator.
This technique allowed for isolation of CD3+ cells, yielding cells of high purity (>99%) and viability (>95%). Following isolation, CD3+ enriched cells were washed three times in RPMI medium containing 1% heat-inactivated FCS, fixed for 1 minute at 0° C. in phosphate-buffered saline (PBS) containing 0.05% glutaraldehyde, and neutralized with an equivalent volume of T lymphocyte neutralizing buffer containing 0.2 M glycine. Following a further three washes, the fixed CD3+ cells were resuspended (at a concentration of 2×10^6 cell/ml) in RPMI medium containing 5% heat-inactivated FCS, and stored for up to 7 days at 4° C. until used. Prior to use, CD3+ enriched cells were washed twice in complete medium.
Monocytes were cultured at 1×10^6 cells/ml in RPMI 1640 medium (containing 5% heat-inactivated FCS) in round-bottomed 96-well culture plates (Nunc Life Technologies Ltd., Paisley, Scotland) in the presence of fixed T cells at varying T-cell/monocyte ratios ranging from 1:1 to 7:1 (as indicated). In some experiments, a semi-permeable membrane insert (Nunc Life Technologies Ltd., Paisley, Scotland) was fitted into the culture wells to physically separate the monocytes from the T cells. In all experiments, efficient fixation of T cells was tested by incubating an aliquot of T-cells (7×10^6 cells/ml) in the absence of monocytes and assaying the amount of TNFα released by the cells under these conditions. Lipopolysaccharide (LPS, 10 ng/ml) was included in experiments as a positive control for monocyte cytokine production.
(§4) Reagents for the TNFα ELISA were provided by Dr. W. Buurman (Rijks Universiteit Limburg, Maastricht, Netherlands). The ELISA was performed using immobilized anti-TNFα mAb 61E71. and developed using a rabbit anti-TNFα polyclonal antibody. An alternative ELISA for TNFα is commercially available from Pharmingen. The rabbit polyclonal antibody was detected using a peroxidase-conjugated goat anti-rabbit IgG (H+L) (Jackson Immunoresearch Laboratories Inc., Westgrove, PE, USA) followed by an appropriate substrate. The sensitivity range of the assay was 1.6 to 5000 pg/ml.
For monocyte/T-cell co-culture experiments, monocytes were cultured with relevant enzyme inhibitors at 37° C. for varying periods of time (see legend to Table 2) prior to co-culture with fixed T-cells for 18 hours. Supernatants were harvested and assayed for presence of TNFα by ELISA. Cell suspensions were taken for determination of cell viability. […]
The effect of wortmannin and LY294002 was also studied on monocyte TNFα production induced by RA CD3+ ve enriched cells (see Table 2). Normal monocytes isolated by elutriation were treated with selective enzyme inhibitors for the designated times prior to co-culture with fixed rheumatoid CD3+ T cells at a ratio 5:1 (T cells to monocytes) for 18 hours. […]

[4] = tested on: TNFα production in osteoarthritis (OA) synovial cultures; experiment: TNFα production in osteoarthritis (OA) synovial cultures; details: 48 h
Description: as §3, with “Osteoarthritis (OA)” for “Rheumatoid arthritis (RA)”, “As in the case of RA cells (above), OA synovial tissue” for “Tissue”, “(BioWhittaker,” for “(Biohittaker,”
as §4
The effect of the PI3 kinase inhibitor, LY294002, was studied on TNFα production in osteoarthritis (OA) synovial cultures. OA synovial joint cultures were cultured for 48 hours in the presence of increasing concentrations of the PI3 kinase inhibitor, LY294002. Culture supernatants were then harvested and assayed for TNFα (pg/ml) by ELISA.

CO[C@H]1C[C@@H]2CC[C@@H](C)[C@@](O)(O2)C(=O)C(=O)N2CCCC[C@H]2C(=O)O[C@H]([C@H](C)C[C@@H]2CC[C@@H](O)[C@H](OC)C2)CC(=O)[C@H](C)/C=C(\C)[C@@H](O)[C@@H](OC)C(=O)[C@H](C)C[C@H](C)/C=C/C=C/C=C/1C [Rapamycin, rapamycin]
effect on monocyte TNFα production induced by anti-CD3 antibody stimulated T cells ([1]; results not shown): no effect
effect on monocyte TNFα production induced by cytokine stimulated T cells [2]: no effect
effect on TNFα production in monocytes stimulated by RA T-cells ([3]; AKTA 5 mM, rapamycin 10 μM, T cells:monocytes 5:1): no significant effect
TNFα [3]: 399 ± 21 pg/mL
Percent change ([3]; AKTA 5 mM): −42%

O=c1cc(N2CCOCC2)oc2c(-c3ccccc3)cccc12 [LY294002]
IC50 [1]: 70 nM
TNFα [3]: 883 ± 304 pg/mL and 883 ± 38 pg/mL
Percent change ([3]; AKTA 5 mM): +29%
TNFα production ([4]; culture OA 1833, LY 294002 0.005 μM, 0.0 μM: 224 ± 15): 236 ± 11 pg/mL
TNFα production ([4]; culture OA 1833, LY 294002 0.05 μM, 0.0 μM: 224 ± 15): 235 ± 22 pg/mL
TNFα production ([4]; culture OA 1833, LY 294002 0.5 μM, 0.0 μM: 224 ± 15): 233 ± 28 pg/mL
TNFα production ([4]; culture OA 1833, LY 294002 5.0 μM, 0.0 μM: 224 ± 15): 202 ± 15 pg/mL
TNFα production ([4]; culture OA 1833, LY 294002 50.0 μM, 0.0 μM: 224 ± 15): 204 ± 5 pg/mL
TNFα production ([4]; culture OA 1840, LY 294002 0.005 μM, 0.0 μM: 635 ± 19): 612 ± 13 pg/mL
TNFα production ([4]; culture OA 1840, LY 294002 0.05 μM, 0.0 μM: 635 ± 19): 642 ± 32 pg/mL
TNFα production ([4]; culture OA 1840, LY 294002 0.5 μM, 0.0 μM: 635 ± 19): 597 ± 38 pg/mL
TNFα production ([4]; culture OA 1840, LY 294002 5.0 μM, 0.0 μM: 635 ± 19): 651 ± 50 pg/mL
TNFα production ([4]; culture OA 1840, LY 294002 50.0 μM, 0.0 μM: 635 ± 19): 600 ± 31 pg/mL
TNFα production ([4]; culture OA 1851, LY 294002 0.005 μM, 0.0 μM: 227 ± 19): 236 ± 13 pg/mL
TNFα production ([4]; culture OA 1851, LY 294002 0.05 μM, 0.0 μM: 227 ± 19): 250 ± 12 pg/mL
TNFα production ([4]; culture OA 1851, LY 294002 0.5 μM, 0.0 μM: 227 ± 19): 237 ± 63 pg/mL
TNFα production ([4]; culture OA 1851, LY 294002 5.0 μM, 0.0 μM: 227 ± 19): 233 ± 15 pg/mL
TNFα production ([4]; culture OA 1851, LY 294002 50.0 μM, 0.0 μM: 227 ± 19): 246 ± 31 pg/mL
TNFα production ([4]; culture OA 1861, LY 294002 0.005 μM, 0.0 μM: 155 ± 42): 141 ± 33 pg/mL
TNFα production ([4]; culture OA 1861, LY 294002 0.05 μM, 0.0 μM: 155 ± 42): 127 ± 5 pg/mL
TNFα production ([4]; culture OA 1861, LY 294002 0.5 μM, 0.0 μM: 155 ± 42): 145 ± 29 pg/mL
TNFα production ([4]; culture OA 1861, LY 294002 5.0 μM, 0.0 μM: 155 ± 42): 131 ± 44 pg/mL
TNFα production ([4]; culture OA 1861, LY 294002 50.0 μM, 0.0 μM: 155 ± 42): 215 ± 9 pg/mL
TNFα production ([4]; culture OA 1862, LY 294002 0.005 μM, 0.0 μM: 141 ± 35): 166 ± 31 pg/mL
TNFα production ([4]; culture OA 1862, LY 294002 0.05 μM, 0.0 μM: 141 ± 35): 171 ± 55 pg/mL
TNFα production ([4]; culture OA 1862, LY 294002 0.5 μM, 0.0 μM: 141 ± 35): 185 ± 7 pg/mL
TNFα production ([4]; culture OA 1862, LY 294002 5.0 μM, 0.0 μM: 141 ± 35): 226 ± 100 pg/mL
TNFα production ([4]; culture OA 1862, LY 294002 50.0 μM, 0.0 μM: 141 ± 35): 205 ± 19 pg/mL
effect on TNFα production in cultures of OA synovial tissue ([4]; varying concentrations, five different samples): no significant effect

COC[C@H]1OC(=O)c2coc3c2[C@@]1(C)C1=C(C3=O)[C@@H]2CCC(=O)[C@@]2(C)C[C@H]1OC(C)=O [Wortmannin, wortmannin]
IC50 [1]: 0.05 nM
TNFα [3]: 7333 ± 304 pg/mL
TNFα ([3]; listed as wortmannin): 7333 ± 304 pg/mL
Percent change ([3]; AKTA 5 mM): +968%
